Measurements taken from patent US12090122B2, “Curcumin-based compositions and methods of use thereof” (priority 2017, dated 2024).

Assays:
Assay type in all cases: cell-based
[1] = tested on: NFkB-p65; experiment: Western blot of cytoplasmic and nuclear NFkB-p65 protein levels (nucleotranslocation) in LPS-induced BV2 cells; conditions: 22.0 μg/ml, 30 min pre-treatment, LPS induction, FIGS. 3 and 4
Method: (§1) Example 2—Western Blot Analysis of Cytoplasmic and Nuclear MSK1 Levels. Western blot analysis was performed in multiple varying formats before optimization was achieved. The BV2 microglia cell line was cultured in Dulbecco's Modified Eagle's Medium (DMEM)—complete medium. The complete medium consisted of DMEM, 1% Ampicillin, and 10% Fetal Bovine Serum (FBS). BV2 microglia cells, at a cell count of approximately 2×10^6, were seeded in each well (6 wells per plate) with 2.0 ml complete medium and cultured overnight in a ThermaForma HepaFilter Series II CO2 Incubator at 37° Celsius. Upon establishing confluence, subconfluent cells were washed out and the wells were prepared with drug pre-treatment after overnight incubation.
(§2) The test drugs (curcuminoids) were procured as follows: curcumin I research standard (03926) (ChromaDex Irvine, CA USA) (97.7% purity); curcumin II research standard (04230) (ChromaDex Irvine, CA USA) (97.3%); curcumin III research standard (B6938) (Sigma-Aldrich St. Louis, Missouri, USA) (97.7% purity); curcumin extract (curcumin I—77.7%, curcumin II—16.9%, curcumin III—0.9%) research standard (03928) (ChromaDex Irvine, CA USA) (95.3% purity); and Lipopolysaccharide (LPS) from E. Coli (L2630) (Sigma-Aldrich St. Louis, Missouri, USA).
(§3) Curcuminoids are not soluble in aqueous medium due to their hydrophobic characteristic. However, curcuminoid extracts are soluble in polar organic solvents, such as DMSO and acetone. In this Example, each curcuminoid preparation was first dissolved in DMSO. DMSO was used in the drug preparation at 0.2%. The drug/DMSO solution was subsequently dissolved in DMEM to achieve a final drug concentration for each curcuminoid preparation tested—22.0 μg/ml curcuminoid. […]
(§4) Total protein concentration for each fraction was determined using a Bio Rad Protein Assay that is based on the Bradford Assay (dye-binding method). […]
(§5) The targets analyzed in the Western Blot included NFkB-p65 and its nucleocytoplasmic translocation, as well as kinases (including MSK1) and their covalent modifications upstream of and involved in the regulation of NFkB. […]

[2] = tested on: NFkB p65 phosphorylated at the serine 276 phosphosite; experiment: Western blot of NFkB-p65 phosphorylated at serine 276 in LPS-induced BV2 cells; conditions: 22.0 μg/ml, 30 min pre-treatment, LPS induction, cytoplasmic and nuclear, FIGS. 5 and 6
Method: as §1, §2, §3, §4, §5

[3] = tested on: MSK1 phosphorylated at the serine 376 phosphosite; experiment: Western blot of MSK1 phosphorylated at serine 376 in LPS-induced BV2 cells; conditions: 22.0 μg/ml, 30 min pre-treatment, LPS induction, FIGS. 9 and 10
Method: as §1, with “incubation. […]” for “incubation.”
as §4, §5

## COc1cc(/C=C/C(=O)/C=C(O)/C=C/c2ccc(O)c(OC)c2)ccc1O [curcumin I, (1E,6E)-1,7-Bis(4-hydroxy-3-methoxyphenyl)-1,6-heptadiene-3,5-dione, reference compound]
[1]
  NFkB-p65 nucleotranslocation (cytosolic and nuclear NFkB-p65 levels relative to total protein): not significantly inhibited
[2]
  NFkB-p65 serine 276 phosphorylation: moderately inhibit

## COc1cc(/C=C/C(=O)CC(=O)/C=C/c2ccc(O)cc2)ccc1O [curcumin II, (1E,6E)-1-(4-Hydroxy-3-methoxyphenyl)-7-(4-hydroxyphenyl)hepta-1,6-diene-3,5-dione]
[3]
  MSK1 serine 376 phosphorylation: inhibit
[1]
  NFkB-p65 nucleotranslocation (cytosolic and nuclear NFkB-p65 levels relative to total protein): not significantly inhibited
[2]
  NFkB-p65 serine 276 phosphorylation: moderately inhibit

## O=C(/C=C/c1ccc(O)cc1)CC(=O)/C=C/c1ccc(O)cc1 [curcumin III, (1E,6E)-1,7-bis(4-hydroxyphenyl)hepta-1,6-diene-3,5-dione]
[1]
  NFkB-p65 nucleotranslocation (cytosolic and nuclear NFkB-p65 levels relative to total protein): not significantly inhibited
[2]
  NFkB-p65 serine 276 phosphorylation: moderately inhibit
